Reference: patent publication US10154991B2, “Anesthetic compounds and related methods of use” (priority 2012, dated 2018)
Read-outs that look alike come from different tables or passages of the source.

Legend:
rats = experiment: loss of righting reflexes (LORR) assay after IV bolus; conditions: for ED50: Rattus norvegicus, iv, read-out: ED50 ± SD; for death of a rat after dosing: one rat, 20 mg/kg dose; for hypnotic potency compared with methoxycarbonyl etomidate and etomidate / in vivo duration of action compared with methoxycarbonyl etomidate and etomidate: rat, in vivo; for R/S ED50 ratio: ED50 for LORR of R form over S form
Protocol: Adult male Sprague-Dawley rats (230-350 gm) were purchased from Charles River Laboratories (Wilmington, Mass.) and housed in the Massachusetts General Hospital Center for Comparative Medicine animal care facility. All drugs were administered through a femoral venous catheter pre-implanted by the vendor prior to animal delivery to our animal care facility.
Immediately after injection, rats were turned supine. […] A stopwatch was used to measure the duration of LORR, which was defined as the time from drug injection until the animal spontaneously righted itself.

[1] = In vitro metabolic half-life of hypnotics in rat blood; format: in vitro ADME; conditions: for half-life at 100 μM: Sprague-Dawley, rat; for half-life at 100 μM / metabolic half-life of S form compared with R form: rat blood
Protocol: On the day of study, whole blood was drawn from the femoral venous catheters of 3 Sprague-Dawley rats (1-2 ml/rat), immediately anticoagulated with heparin (38 U), pooled, and stored on ice. A 1 ml aliquot of blood was warmed at 37° C. for 5 minutes and hypnotic (from a 40 mM in dimethyl sulfoxide stock solution) was added to a final concentration of 100 μM. After the desired incubation time, a 150 μl sample was removed and the metabolic reaction was quenched with 150 μl acetonitrile (Sigma-Aldrich, St. Louis, Mo.). Zero time point samples were prepared by adding 150 μl acetonitrile to blood prior to adding hypnotic (from a 4 mM in dimethyl sulfoxide stock solution). The quenched samples were centrifuged and the resultant supernatant separated and stored at −20° C. until analyzed. Hypnotic concentrations in thawed samples were determined by high performance liquid chromatography using a Varian Prostar system with a 4.6×250 mm Proto 300 C18 column (Nest Group, Southborough, Mass.) with the UV detector set at 240 nm.

[2] = Octanol:water partition coefficients; format: physicochemical; conditions: 10 mM Tris pH 7.4; read-out: Octanol/Water Partition Coefficient ± SD (converted)
Protocol: One mg of each hypnotic was added to 10 ml of water buffered with 10 mM Tris (pH 7.4) and 0.5 ml or 1 ml of octanol. The mixture was stirred overnight and then centrifuged to more fully separate the organic and aqueous phases. The relative hypnotic concentrations in each phase (i.e. the partition coefficient) were determined by high performance liquid chromatography as described for blood.

ICR mice = experiment: In vivo sedative/hypnotic testing, IV bolus, mice; parameters: species or system mouse; conditions: for Mouse response: IV bolus, doses as in the cell; for ED50: Mus musculus, sedation/hypnosis, IV
Protocol: (§1) Animals were housed in a dedicated room at the vivarium of VivoPath Inc., located at Redstone Center, 55 Union Street, Worcester, Mass. Housing and care was as specified in the USDA Animal Welfare Act (9 CFR, Parts 1, 2, and 3) and as described in the Guide for the Care and Use of Laboratory Animals from the National Research Council. Environmental conditions of housing rooms are set at the following ranges: temperature: 70±7° F. (22±4° C.), humidity: 50±20%, light cycle: 12-hour light/12-hour dark cycle—lights on at 7 am and off at 7 pm., air changes: ten or more air changes per hour with 100% fresh air. The animals' body weights were measured prior to the first dose on each experimental day.
Adult ICR mice (20-30 g) were purchased from Harlan (South Easton, Mass.). Drugs were administered as intravenous bolus injection in a tail vein.
(§2) Drugs were prepared in either dimethylsulfoxide/saline or saline vehicle or hydroxypropyl-β-cyclodextrin (20% in water, pH 7.0) solution and were administered as an intravenous bolus injection. Animals received 1-4 doses of drug(s) during an experimental day, either ascending doses or different drugs. Doses were administered at intervals equal to the longer of 1 h or 10-times the duration of apparent sedative/hypnotic effects from the previous dose. The sedative/hypnotic properties of the drugs were evaluated by observation of the rats, ranging from mild excitation, mild sedation apparent due to reduced activity, and moderate sedation to hypnosis reflected by loss of righting reflex (LORR, the ability to place rear and hind legs under the body, as well as attenuation/loss of nociceptive reflexes).

Sprague-Dawley rats = experiment: In vivo sedative/hypnotic testing, IV bolus, rats; parameters: species or system rat; conditions: for Rat response: IV bolus, doses as in the cell; for ED50: Rattus norvegicus, sedation/hypnosis, IV
Protocol: as §1
Adult male Sprague-Dawley rats (225-300 g) were purchased from Harlan (South Easton, Mass.).
as §2

beagle dogs = conditions: dog, in vivo
Protocol: A pilot study was conducted in dogs to assess anesthesia induced by cyclopropyl-MOC-metomidate continuous infusion without a bolus induction dosing. Two dogs received cyclopropyl-MOC-metomidate as a 1 mg/kg/min IV infusion without prior bolus administration.
Anesthesia induction was determined using the methods described above.
Etomidate was administered to dogs at IV bolus doses ranging from 0.25 to 2 mg/kg. Anesthesia in the dogs was measured as described above. […] The bolus dose of 2 mg/kg was adopted to induce anesthesia prior to subsequent continuous infusions.
Propofol was administered to dogs as an IV bolus dose of 5 mg/kg to induce anesthesia followed by a continuous infusion at 0.4 mg/kg/min.

[3] = pooled heparinised whole blood, 37° C., 100 μM, read-out: Blood Half-Life (95% CI)
[4] = pooled heparinised whole blood, bound based on the lower limit of quantification, read-out: metabolic half-life in rat blood (converted)

Compound: COC(=O)C(C)(C)OC(=O)c1cncn1[C@H](C)c1ccccc1 [Dimethyl- methoxycarbonyl metomidate, dimethyl-methoxycarbonyl metomidate]
- lethal dose relative to ED50 for LORR (rats; 20 mg/kg dose vs ED50): 28 fold
- ED50 (rats): 0.72 ± 0.16 mg/kg
- death of a rat after dosing (rats): died
- hypnotic potency compared with methoxycarbonyl etomidate and etomidate (rats): nearly an order of magnitude higher than that of methoxycarbonyl etomidate and similar to that of etomidate
- in vivo duration of action compared with methoxycarbonyl etomidate and etomidate (rats): intermediate between those of methoxycarbonyl etomidate and etomidate
- in vitro metabolic half-life compared with methoxycarbonyl etomidate and etomidate [1]: intermediate between those of methoxycarbonyl etomidate and etomidate
- half-life at 100 μM ([1]; 37° C., 100 μM, read-out: Blood Half-Life (95% CI)): 522 s
- logD [2]: 2.82

Compound: COC(=O)C(C)(C)COC(=O)c1cncn1[C@H](C)c1ccccc1 [α-dimethyl- methoxycarbonyl etomidate, α-dimethyl-MOC-etomidate]
- ED50 (rats): 2.4 ± 1 mg/kg
- half-life at 100 μM [1, 3]: 156 s
- logD [2]: 3.35

Compound: COC(=O)[C@H](OC(=O)c1cncn1[C@H](C)c1ccccc1)C(C)C [S-isopropyl-methoxycarbonyl metomidate]
- ED50 (rats): 1.2 ± 0.19 mg/kg
- Slope of Duration vs. Log Dose ± SD (rats; duration of LORR vs log dose, rats): 12.1±1.1 min/(log mg/kg)
- half-life at 100 μM [1, 3]: 930 s
- metabolic half-life of S form compared with R form [1]: two orders of magnitude longer
- logD [2]: 3.46

Compound: COC(=O)c1ccccc1OC(=O)c1cncn1[C@H](C)c1ccccc1
- Mouse response (ICR mice): Mild excitation but no sedation at 2, 4 or 8 mg/kg IV

Compound: COC(=O)[C@H](C)OC(=O)c1cncn1[C@H](C)c1ccccc1 [(S)-methyl- methoxycarbonyl metomidate, S-methyl-methoxycarbonyl metomidate]
- ED50 (rats): 3.5 ± 0.4 mg/kg
- half-life at 100 μM [1, 3]: 8.4 s
- metabolic half-life of S form compared with R form [1]: at least four-fold longer
- logD [2]: 2.52

Compound: methyl-methoxycarbonyl metomidate
- R/S ED50 ratio (rats): 2.7

Compound: COC(=O)C1(OC(=O)c2cncn2[C@H](C)c2ccccc2)CCC1 [Cyclobutyl-MOC-metomidate, cyclobutyl-methoxycarbonyl metomidate]
- Mouse response (ICR mice): Sedation/hypnosis induced at 2, 4 & 8 mg/kg IV
- ED50 (ICR mice): 1 to 2 mg/kg
- slope of duration of LORR vs logarithm of dose (ICR mice; mice): approximately 7
- hypnotic potency compared with methoxycarbonyl etomidate and etomidate (rats): nearly an order of magnitude higher than that of methoxycarbonyl etomidate and similar to that of etomidate
- in vivo duration of action compared with methoxycarbonyl etomidate and etomidate (rats): intermediate between those of methoxycarbonyl etomidate and etomidate
- Rat response (Sprague-Dawley rats): Sedation/hypnosis induced at 1, 2, 4 & 8 mg/kg IV
- ED50 (Sprague-Dawley rats): ~1 mg/kg
- slope of duration of LORR vs logarithm of dose (Sprague-Dawley rats; rats): ~5

Compound: COC(=O)C1(OC(=O)c2cncn2[C@H](C)c2ccccc2)CCCC1
- Rat response (Sprague-Dawley rats): Sedative at 1 & 2 mg/kg, with rear paws out but head and forepaws mobile Hypnotic at 4 & 8 mg/kg, quite long-acting

Compound: COC(=O)C(OC(=O)c1cncn1C(C)c1ccccc1)C(C)C (stereo not drawn) [isopropyl-methoxycarbonyl metomidate]
- R/S ED50 ratio (rats): 3.0

Compound: β-methyl-methoxycarbonyl etomidate
- R/S ED50 ratio (rats): 1.2

Compound: COC(=O)[C@@H](OC(=O)c1cncn1[C@H](C)c1ccccc1)C(C)C [R-isopropyl-methoxycarbonyl metomidate]
- ED50 (rats): 3.6 ± 0.8 mg/kg
- death of a rat after dosing (rats): died after receiving a 20 mg/kg dose
- half-life at 100 μM [1, 3]: 9 s
- logD [2]: 3.58

Compound: COC(=O)C[C@@H](C)OC(=O)c1cncn1[C@H](C)c1ccccc1 [β-(R)- methyl- methoxycarbonyl etomidate, β-R-methyl-MOC-etomidate]
- ED50 (rats): 3.5 ± 0.6 mg/kg
- half-life at 100 μM [1, 3]: 54.6 s
- logD [2]: 2.7

Compound: CCOC(=O)c1cncn1[C@H](C)c1ccccc1 [drawing 81]
- Mouse response (ICR mice): Sedation/hypnosis induced at 2 & 4 mg/kg IV
- ED50 (ICR mice): ~0.7 mg/kg
- Rat response (Sprague-Dawley rats): Sedation/hypnosis induced at 2 & 4 mg/kg IV
- ED50 (Sprague-Dawley rats): ~0.7 mg/kg

Compound: C[C@H](c1ccccc1)n1cncc1C(=O)OC1(C(=O)OC2COC2)CC1
- Mouse response (ICR mice): No effect at 4 mg/kg IV

Compound: COC(=O)C(OC(=O)c1cncn1[C@H](C)c1ccccc1)C1CC1 (stereo partly drawn)
- Mouse response (ICR mice): Sedation/hypnosis induced at 8, 16 & 32 mg/kg IV
- ED50 (ICR mice): ~8 mg/kg

Compound: COC(=O)[C@H](C)COC(=O)c1cncn1[C@H](C)c1ccccc1 [α-(R)- methyl- methoxycarbonyl etomidate, α-R-methyl-methoxycarbonyl etomidate]
- ED50 (rats): 5.2 ± 0.5 mg/kg
- half-life at 100 μM [1, 3]: 11.4 s
- logD [2]: 2.83

Compound: CC(C)c1cccc(C(C)C)c1O [Propofol]
- emergence from anesthesia after the end of infusion (beagle dogs): approximately 15 minutes
- recovery of normal behavior after infusion (beagle dogs): ≥ 30 min
- recovery time relative to cyclopropyl-MOC-metomidate infusion of the same duration (beagle dogs): approximately 3 fold

Compound: COC(=O)C1(OC(=O)c2cncn2[C@H](C)c2ccccc2)CC1 [drawing 83]
- Mouse response (ICR mice): Sedation/hypnosis induced at 2 & 4 mg/kg IV
- ED50 (ICR mice): ~0.7 mg/kg
- Rat response (Sprague-Dawley rats): Sedation/hypnosis induced at 2 & 4 mg/kg IV
- ED50 (Sprague-Dawley rats): ~0.7 mg/kg

Compound: COC(=O)COC(=O)c1cncn1[C@H](C)c1ccccc1 [Methoxycarbonyl metomidate, methoxycarbonyl metomidate]
- ED50 (rats): 11.1 ± 0.8 mg/kg
- half-life at 100 μM [1, 3]: < 1.8 s
- half-life at 100 μM [1, 4]: < 2 s
- logD [2]: 2.2

Compound: COC(=O)c1cncn1[C@H](C)c1ccccc1 [Metomidate, reference compound]
- ED50 (rats): 0.73 ± 0.5 mg/kg
- half-life at 100 μM [1, 3]: 8580 s
- logD [2]: 2.58

Compound: COC(=O)C[C@H](C)OC(=O)c1cncn1[C@H](C)c1ccccc1 [β-(S)- methyl- methoxycarbonyl etomidate, β-S-methyl-MOC-etomidate]
- ED50 (rats): 2.9 ± 0.3 mg/kg
- half-life at 100 μM [1, 3]: 43.2 s
- logD [2]: 2.68

Compound: COC(=O)[C@@H](C)OC(=O)c1cncn1[C@H](C)c1ccccc1 [(R)-methyl- methoxycarbonyl metomidate, R-methyl-methoxycarbonyl metomidate]
- ED50 (rats): 9.6 ± 1.9 mg/kg
- half-life at 100 μM [1, 3]: < 1.8 s
- half-life at 100 μM [1, 4]: < 2 s
- logD [2]: 2.58

Compound: COC(=O)C1(OC(=O)c2cncn2[C@H](C)c2ccccc2)CCNCC1
- Rat response (Sprague-Dawley rats): No effect apparent at 4, 8 & 16 mg/kg

Compound: COC(=O)C1(OC(=O)c2cncn2[C@H](C)c2ccccc2)CCCCC1
- Rat response (Sprague-Dawley rats): Mildly sedative at 4 mg/kg Hypnotic at 8 mg/kg - deep and long-acting

Compound: α-methyl-methoxycarbonyl etomidate
- R/S ED50 ratio (rats): 1.7

Compound: cyclopentyl-methoxycarbonyl metomidate
- hypnotic potency compared with methoxycarbonyl etomidate and etomidate (rats): nearly an order of magnitude higher than that of methoxycarbonyl etomidate and similar to that of etomidate
- in vivo duration of action compared with methoxycarbonyl etomidate and etomidate (rats): intermediate between those of methoxycarbonyl etomidate and etomidate

Compound: COC(=O)C1(OC(=O)c2cncn2[C@H](C)c2ccccc2)CCN(C)CC1
- Rat response (Sprague-Dawley rats): No effect apparent at 4, 8 & 16 mg/kg

Compound: COC(=O)C1(OC(=O)c2cncn2[C@H](C)c2ccccc2)CCOCC1
- Rat response (Sprague-Dawley rats): Mildly sedative at 16 mg/kg More profound short-acting sedation at 32 mg/kg
